In one assay the target is Mu-type opioid receptor (Homo sapiens, UniProt P35372).
Assay [1] concerns the target T1, Alpha-2C adrenergic receptor (Homo sapiens, UniProt P18825).
T1 sequence (P18825 whole entry): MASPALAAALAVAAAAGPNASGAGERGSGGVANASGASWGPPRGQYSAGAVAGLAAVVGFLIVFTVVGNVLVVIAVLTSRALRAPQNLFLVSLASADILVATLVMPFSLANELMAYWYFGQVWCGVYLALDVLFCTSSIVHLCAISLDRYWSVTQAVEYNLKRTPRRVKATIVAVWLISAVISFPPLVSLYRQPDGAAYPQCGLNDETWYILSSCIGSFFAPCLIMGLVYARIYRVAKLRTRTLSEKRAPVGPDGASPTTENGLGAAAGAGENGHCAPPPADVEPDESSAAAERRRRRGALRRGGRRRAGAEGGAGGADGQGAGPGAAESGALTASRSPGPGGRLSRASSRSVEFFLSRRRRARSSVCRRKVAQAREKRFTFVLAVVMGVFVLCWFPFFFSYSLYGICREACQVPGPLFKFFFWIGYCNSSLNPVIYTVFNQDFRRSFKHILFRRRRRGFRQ
The class given is functional.

For assay [2], the target named is Beta-1 adrenergic receptor (Homo sapiens, UniProt P08588). It counts as functional.
Assay [3] addresses T2, Alpha-1A adrenergic receptor (Homo sapiens, UniProt P35348).
T2 sequence (P35348 whole entry): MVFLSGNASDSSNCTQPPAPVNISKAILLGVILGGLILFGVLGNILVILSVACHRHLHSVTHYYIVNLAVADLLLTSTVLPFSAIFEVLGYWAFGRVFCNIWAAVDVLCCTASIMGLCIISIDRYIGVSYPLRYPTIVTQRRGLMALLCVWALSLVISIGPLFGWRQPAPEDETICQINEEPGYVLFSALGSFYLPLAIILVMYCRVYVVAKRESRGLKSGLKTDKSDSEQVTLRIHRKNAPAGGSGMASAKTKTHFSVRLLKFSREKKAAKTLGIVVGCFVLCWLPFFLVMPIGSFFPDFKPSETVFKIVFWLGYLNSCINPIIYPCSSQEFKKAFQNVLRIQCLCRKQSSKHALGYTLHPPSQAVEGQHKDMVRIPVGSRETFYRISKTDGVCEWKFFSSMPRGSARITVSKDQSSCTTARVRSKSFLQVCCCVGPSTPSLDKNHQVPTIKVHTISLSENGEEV

A further assay deals with T3, B2 bradykinin receptor (Homo sapiens, UniProt P30411).
T3 sequence (P30411 whole entry): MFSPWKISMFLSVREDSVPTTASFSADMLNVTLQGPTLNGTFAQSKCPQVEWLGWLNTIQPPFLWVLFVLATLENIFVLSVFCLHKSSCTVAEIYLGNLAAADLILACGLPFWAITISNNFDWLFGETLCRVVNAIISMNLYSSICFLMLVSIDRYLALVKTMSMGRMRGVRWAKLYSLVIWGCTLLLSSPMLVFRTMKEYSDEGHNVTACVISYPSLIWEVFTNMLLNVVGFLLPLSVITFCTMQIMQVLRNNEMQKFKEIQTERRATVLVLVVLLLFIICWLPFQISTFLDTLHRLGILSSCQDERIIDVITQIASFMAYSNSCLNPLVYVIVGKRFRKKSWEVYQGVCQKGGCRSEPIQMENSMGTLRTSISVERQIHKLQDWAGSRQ

In the next assay the target is T4, Thromboxane A2 receptor (Homo sapiens, UniProt P21731).
T4 sequence (P21731 whole entry): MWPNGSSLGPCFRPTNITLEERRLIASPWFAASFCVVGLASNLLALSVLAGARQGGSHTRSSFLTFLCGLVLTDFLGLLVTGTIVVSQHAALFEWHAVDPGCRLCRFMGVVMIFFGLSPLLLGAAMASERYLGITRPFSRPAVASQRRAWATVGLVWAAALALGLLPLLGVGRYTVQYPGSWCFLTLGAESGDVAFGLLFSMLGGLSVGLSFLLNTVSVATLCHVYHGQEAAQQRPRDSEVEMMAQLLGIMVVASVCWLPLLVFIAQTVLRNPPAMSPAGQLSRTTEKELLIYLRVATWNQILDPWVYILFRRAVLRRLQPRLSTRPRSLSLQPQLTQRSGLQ

Assay [4] concerns the target T5, 5-hydroxytryptamine receptor 1A (Homo sapiens, UniProt P08908).
T5 sequence (P08908 whole entry): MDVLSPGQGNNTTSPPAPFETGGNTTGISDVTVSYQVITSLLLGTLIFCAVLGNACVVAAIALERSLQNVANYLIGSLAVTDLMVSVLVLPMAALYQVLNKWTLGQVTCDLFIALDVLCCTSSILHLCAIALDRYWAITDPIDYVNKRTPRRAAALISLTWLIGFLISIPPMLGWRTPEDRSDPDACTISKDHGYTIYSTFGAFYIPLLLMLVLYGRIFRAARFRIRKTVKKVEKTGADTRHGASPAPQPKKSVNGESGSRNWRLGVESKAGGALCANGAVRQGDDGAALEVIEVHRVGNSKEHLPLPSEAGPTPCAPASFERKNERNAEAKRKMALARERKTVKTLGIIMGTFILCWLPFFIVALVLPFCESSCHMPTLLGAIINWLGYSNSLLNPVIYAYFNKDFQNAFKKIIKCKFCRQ
It counts as functional, cell-based.

The target in assay [5] is T6, Muscarinic acetylcholine receptor M1 (Homo sapiens, UniProt P11229).
T6 sequence (P11229 whole entry): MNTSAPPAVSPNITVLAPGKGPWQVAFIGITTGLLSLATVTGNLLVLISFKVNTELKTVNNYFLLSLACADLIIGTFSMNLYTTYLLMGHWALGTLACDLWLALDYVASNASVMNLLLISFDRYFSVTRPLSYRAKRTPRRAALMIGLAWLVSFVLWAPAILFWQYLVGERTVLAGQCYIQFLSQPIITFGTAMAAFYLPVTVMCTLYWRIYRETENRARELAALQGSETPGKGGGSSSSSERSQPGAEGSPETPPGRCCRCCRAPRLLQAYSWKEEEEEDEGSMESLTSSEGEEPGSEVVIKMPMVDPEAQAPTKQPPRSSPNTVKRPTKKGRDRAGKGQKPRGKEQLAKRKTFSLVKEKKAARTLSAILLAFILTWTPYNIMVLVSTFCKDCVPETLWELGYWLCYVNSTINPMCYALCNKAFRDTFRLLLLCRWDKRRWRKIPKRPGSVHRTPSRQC
It counts as functional.

Some results are limits rather than exact numbers.

The term AC50 denotes the concentration giving half of the maximal activity seen.
Also: assay procedure not described here.

Sequence of Beta-1 adrenergic receptor (P08588 whole entry): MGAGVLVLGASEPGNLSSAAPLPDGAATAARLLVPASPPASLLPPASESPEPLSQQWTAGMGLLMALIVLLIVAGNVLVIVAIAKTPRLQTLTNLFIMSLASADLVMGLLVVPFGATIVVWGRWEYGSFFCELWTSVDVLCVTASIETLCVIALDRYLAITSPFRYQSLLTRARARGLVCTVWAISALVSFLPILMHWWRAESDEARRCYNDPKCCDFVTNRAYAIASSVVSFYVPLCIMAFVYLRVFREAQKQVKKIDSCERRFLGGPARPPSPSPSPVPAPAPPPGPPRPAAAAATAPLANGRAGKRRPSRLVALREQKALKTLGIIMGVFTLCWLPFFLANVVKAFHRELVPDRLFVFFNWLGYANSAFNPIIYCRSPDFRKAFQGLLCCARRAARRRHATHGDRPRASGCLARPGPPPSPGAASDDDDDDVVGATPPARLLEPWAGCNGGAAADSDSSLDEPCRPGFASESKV
Sequence of Mu-type opioid receptor (P35372 whole entry): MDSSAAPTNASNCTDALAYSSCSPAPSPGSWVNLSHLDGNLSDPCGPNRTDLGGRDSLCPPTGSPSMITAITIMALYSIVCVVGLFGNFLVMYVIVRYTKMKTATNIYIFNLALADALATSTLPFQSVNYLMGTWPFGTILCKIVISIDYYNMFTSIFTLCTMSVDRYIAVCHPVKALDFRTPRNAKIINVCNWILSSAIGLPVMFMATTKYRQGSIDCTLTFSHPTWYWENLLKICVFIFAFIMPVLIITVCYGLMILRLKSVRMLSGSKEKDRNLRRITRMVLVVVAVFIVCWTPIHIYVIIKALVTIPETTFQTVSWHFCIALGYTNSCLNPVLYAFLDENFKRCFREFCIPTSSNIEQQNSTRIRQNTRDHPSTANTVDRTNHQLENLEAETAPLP

On to `CCC1(C)CC(=O)NC1=O` (stereo unspecified) [ETHOSUXIMIDE], for which the AC50 on Mu-type opioid receptor was over 30 µM; in assay [1], over 10 µM; in assay [2] it was over 10 µM; in assay [3], over 30 µM; at B2 bradykinin receptor, over 10 µM; on Thromboxane A2 receptor, over 10 µM. In addition, the AC50 in assay [4] is over 10 µM.
`CN1CCC(=C2c3ccccc3CC(=O)c3sccc32)CC1` [KETOTIFEN]: the AC50 on Mu-type opioid receptor was over 30 µM; in assay [1], 6.45 µM; in assay [3] it was 10.4 µM; at B2 bradykinin receptor, over 10 µM; on Thromboxane A2 receptor it was over 10 µM; in assay [4], over 10 µM.
For `Cc1cccc(Nc2ccncc2S(=O)(=O)NC(=O)NC(C)C)c1` [TORSEMIDE], the AC50 at Mu-type opioid receptor is over 30 µM; in assay [1], over 10 µM; in assay [2], over 10 µM; in assay [3], over 10 µM; at B2 bradykinin receptor, over 30 µM; on Thromboxane A2 receptor, 20.8 µM. In assay [4], this compound came in with an AC50 of over 10 µM.
As for `CC1CC(OC(=O)C(O)c2ccccc2)CC(C)(C)C1` (stereo unspecified) [CYCLANDELATE], the half-maximal activity concentration (AC50) on Mu-type opioid receptor is over 30 µM; in assay [1], over 10 µM; in assay [2] it was over 10 µM; in assay [3], over 10 µM; at B2 bradykinin receptor, over 10 µM; at Thromboxane A2 receptor, over 10 µM. In addition, in assay [4], the AC50 is over 10 µM.
As for `CN1C2CCCC1CC(NC(=O)c1nn(C)c3ccccc13)C2` (stereo unspecified) [GRANISETRON], the AC50 was over 10 µM on Mu-type opioid receptor; over 10 µM in assay [1]; over 10 µM in assay [2]; over 10 µM in assay [3]; over 30 µM at B2 bradykinin receptor; over 30 µM on Thromboxane A2 receptor. In assay [4], this compound displayed a concentration at half-maximal activity (AC50) of over 10 µM.
On to `Cc1nnc2n1-c1ccc(Cl)cc1C(c1ccccc1)=NC2` [ALPRAZOLAM], for which the AC50 is over 30 µM on Mu-type opioid receptor; over 10 µM in assay [1]; over 10 µM in assay [2]; over 10 µM in assay [3]; over 30 µM at B2 bradykinin receptor; over 30 µM at Thromboxane A2 receptor. For the same compound, the AC50 in assay [4] is over 10 µM.
As for `N=C(N)NC(=O)Cc1c(Cl)cccc1Cl` [GUANFACINE], the concentration at half-maximal activity (AC50) at Mu-type opioid receptor was over 30 µM; in assay [2], over 10 µM; in assay [3] it was 7.64 µM; at B2 bradykinin receptor, over 30 µM; at Thromboxane A2 receptor it was over 30 µM; in assay [4], over 30 µM.
For the compound `CC1=C(CC(=O)O)c2cc(F)ccc2/C1=C\c1ccc([S+](C)[O-])cc1` (stereo unspecified), the AC50 was over 30 µM at Mu-type opioid receptor; over 10 µM in assay [1]; over 10 µM in assay [2]; over 10 µM in assay [3]; over 30 µM at B2 bradykinin receptor; over 30 µM on Thromboxane A2 receptor. Also, the AC50 in assay [4] is over 10 µM.
Turning to `Cc1cnc(Nc2ccc(OCCN3CCCC3)cc2)nc1Nc1cccc(S(=O)(=O)NC(C)(C)C)c1` [FEDRATINIB], the AC50 on Mu-type opioid receptor was 17 µM; in assay [1], 7.4 µM; in assay [2], over 10 µM; in assay [3], over 10 µM; in assay [5], 1.2 µM; on B2 bradykinin receptor, over 30 µM. The same compound showed a concentration at half-maximal activity (AC50) at Thromboxane A2 receptor of over 30 µM.
As to `CN(Cc1ccc(C(C)(C)C)cc1)Cc1cccc2ccccc12` [BUTENAFINE], the AC50 on Mu-type opioid receptor is over 30 µM; in assay [1] it was over 10 µM; in assay [2] it was over 10 µM; in assay [3], over 10 µM; at B2 bradykinin receptor, over 10 µM; at Thromboxane A2 receptor, over 10 µM. Further, the AC50 in assay [4] was over 10 µM.
Consider `C[C@@H](Cc1ccccc1)N(C)Cc1ccccc1` [BENZPHETAMINE], for which the half-maximal activity concentration (AC50) on Mu-type opioid receptor was over 30 µM; in assay [1] it was 0.68 µM; in assay [2] it was over 10 µM; in assay [3], 6.96 µM; in assay [5], over 10 µM; on B2 bradykinin receptor, over 10 µM. The AC50 at Thromboxane A2 receptor was over 10 µM.
Take `Nc1ccc(S(=O)(=O)Nc2ncccn2)cc1` [SULFADIAZINE]: the AC50 was over 30 µM at Mu-type opioid receptor; over 10 µM in assay [1]; over 10 µM in assay [2]; over 10 µM in assay [3]; over 10 µM at B2 bradykinin receptor; over 10 µM at Thromboxane A2 receptor. Further, the AC50 in assay [4] is over 10 µM.
Regarding `CCC(NC(C)C)C(O)c1ccc(O)c(O)c1` (stereo unspecified) [ISOETHARINE], the AC50 (on Mu-type opioid receptor; in assay [1]; in assay [3]; in assay [5]; on B2 bradykinin receptor; at Thromboxane A2 receptor) was over 30 µM each time. In assay [4], this compound showed an AC50 of over 30 µM.
Turning to `O=C1CN=C(c2ccccc2Cl)c2cc([N+](=O)[O-])ccc2N1` [CLONAZEPAM], the AC50 at Mu-type opioid receptor is over 30 µM; in assay [1], over 10 µM; in assay [2], over 10 µM; in assay [3], 11.9 µM; on B2 bradykinin receptor it was over 30 µM; on Thromboxane A2 receptor, over 30 µM. Further, the AC50 in assay [4] is over 10 µM.
Consider `CC1Cc2ccccc2N1NC(=O)c1ccc(Cl)c(S(N)(=O)=O)c1` (stereo unspecified) [INDAPAMIDE], for which the AC50 on Mu-type opioid receptor was over 30 µM; in assay [1], over 10 µM; in assay [2], over 10 µM; in assay [3], over 10 µM; on B2 bradykinin receptor, over 30 µM; on Thromboxane A2 receptor it was over 30 µM.
`CCOC(=O)C1=C(C)NC(C)=C(C(=O)OC)C1c1cccc(Cl)c1Cl` (stereo unspecified) [FELODIPINE]: the AC50 on Mu-type opioid receptor was over 10 µM; in assay [1] it was over 10 µM; in assay [2], over 10 µM; in assay [3], 13 µM; on B2 bradykinin receptor, over 30 µM; at Thromboxane A2 receptor it was 8.41 µM. Further, the AC50 in assay [4] is over 10 µM.
As to `CCN(C(C)=O)c1cccc(-c2ccnc3c(C#N)cnn23)c1` [ZALEPLON], the AC50 is over 30 µM at Mu-type opioid receptor; over 10 µM in assay [1]; over 30 µM in assay [2]; over 10 µM in assay [3]; over 30 µM at B2 bradykinin receptor; over 30 µM on Thromboxane A2 receptor. In assay [4], the half-maximal activity concentration (AC50) is over 10 µM.

These data come from ChEMBL document CHEMBL5291721, “A preclinical secondary pharmacology resource illuminates target-adverse drug reaction associations of marketed drugs” (Nat Commun, 2023).
